In US20240382465A1, “AROMATIC ACETYLENE DERIVATIVE, AND PREPARATION METHOD THEREFOR AND USE THEREOF” (priority 2021, published 2024):
Values after ≈ are worked out from the molar mass of the structure shown. Where two headings read alike, the source gives them in different places.

Columns and labels:
E. coli ATCC 25922 = test: Antibacterial activity, MIC by broth microdilution (CLSI); format: cell-based; settings: Escherichia coli
Summary of the method: (§1)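 Broth microdilution per CLSI, compound at 64-0.06 μg/mL final in twofold steps (1% DMSO from 100× working solutions). Inoculum 5×10^5 cfu/ml; plates incubated at 35° C for 18-24 hours.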

K. pneumoniae ATCC13883 = test: as above; format: cell-based; settings: Klebsiella pneumoniae
Summary of the method: as §1

[1] = biological target: recombinant Pseudomonas aeruginosa LpxC (Pseudomonas aeruginosa (strain ATCC 15692 / DSM 22644 / CIP 104116 / JCM 14847 / LMG 12228 / 1C / PRS 101 / PAO1), UniProt P47205); test: Inhibition of LpxC enzymatic activity (fluorescamine assay); format: biochemical
Summary of the method: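 Recombinant P. aeruginosa LpxC (5 nM) with substrate UDP-3-O-(R-3-hydroxydecanoyl)-GlcNAc (10 μM), 120 min at 25 °C; compound 8 points, 4-fold dilution, 0.61-10,000 nM. Product detected by fluorescamine (ex 390/em 495 nm) after stopping with pH 8.0 phosphate; % inhibition versus DMSO control.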

[2] = ATCC25922, E. coli ATCC 25922, 35° C., 18 to 24 hours, read-out: MIC(E. coli)
[3] = K. pneumoniae ATCC13883, 35° C., 18 to 24 hours, read-out: MIC(K. Pneumoniae)
[4] = recombinant P. aeruginosa LpxC 5 nM, substrate 10 μM, 25° C., 120 minutes, read-out: IC50

Row | Structure (SMILES) | MIC (E. coli ATCC 25922; [2]) [µg/mL] | MIC (K. pneumoniae ATCC13883; [3]) [µg/mL] | IC50 [1, 4] [nM] | IC50 [1] [nM] | MIC (E. coli ATCC 25922; ATCC25922, read-out: MIC(E. coli)) [µg/mL] | MIC (K. pneumoniae ATCC13883; ATCC13883, read-out: MIC(K. Pneumoniae)) [µg/mL]
1 | C[C@H](O)c1nccn1Cc1cc(-c2ccc(C#Cc3ccc(CCC(N)=O)nc3)cc2)on1 [Example 40, (S)-3-(5-((4-(3-((2-(1-hydroxyethyl)-1H-imidazol-1-yl)methyl)isoxazol-5-yl)phenyl)ethynyl)pyridin-2-yl)propanamide] | 1 (≈ 2.27 µM) | 4 (≈ 9.06 µM) | 16.7 |  |  | 
2 | CCOC(=O)CC1CN(Cc2ccc(C#Cc3ccc(-c4cc(Cn5ccnc5[C@H](C)O)no4)cc3)cc2)C1 [Example 111, Ethyl (S)-2-(1-(4-((4-(3-((2-(1-hydroxyethyl)-1H-imidazol-1-yl)methyl)isoxazol-5-yl)phenyl)ethynyl)benzyl)azetidin-3-yl)acetate] | 1 (≈ 1.91 µM) | 1 (≈ 1.91 µM) | 8.59 |  |  | 
3 | CC(=O)c1ccc(C#Cc2ccc(-c3cc(Cn4ccnc4[C@H](C)O)no3)cc2)cc1 [Example 26, (S)-1-(4-((4-(3-((2-(1-hydroxyethyl)-1H-imidazol-1-yl)methyl)isoxazol-5-yl)phenyl)ethynyl)phenyl)ethan-1-one] | 0.125 (≈ 0.304 µM) | 0.5 (≈ 1.22 µM) | 71.7 |  |  | 
4 | C[C@H](O)c1nccn1Cc1cc(-c2ccc(C#Cc3ccc(CN4CC(C(N)=O)C4)cc3)cc2)on1 [Example 53, (S)-1-(4-((4-(3-((2-(1-hydroxyethyl)-1H-imidazol-1-yl)methyl)isoxazol-5-yl)phenyl)ethynyl)benzyl)azetidin-3-carboxamide] | 1 (≈ 2.08 µM) | 4 (≈ 8.31 µM) | 13.7 |  |  | 
5 | C[C@H](O)c1nccn1Cc1cc(-c2ccc(C#Cc3ccc(CN4CC(C#N)C4)cc3)cc2)on1 [Example 52, (S)-1-(4-((4-(3-((2-(1-hydroxyethyl)-1H-imidazol-1-yl)methyl)isoxazol-5-yl)phenyl)ethynyl)benzyl)azetidin-3-carbonitrile] | 0.25 (≈ 0.539 µM) | 1 (≈ 2.16 µM) | 11.2 |  |  | 
6 | C[C@H](O)c1nccn1Cc1cc(-c2ccc(C#Cc3ccc(CNCCS(C)(=O)=O)cc3)cc2)on1 [Example 49, (S)-1-(1-((5-(4-((4-(((2-(methylsulfonyl)ethyl)amino)methyl)phenyl)ethynyl)phenyl)isoxazol-3-yl)methyl)-1H-imidazol-2-yl)ethan-1-ol] | 1 (≈ 1.98 µM) | 4 (≈ 7.93 µM) |  | 11.1 |  | 
7 | C[C@H](O)c1nccn1Cc1cc(-c2ccc(C#Cc3ccc(CNC4CCS(=O)(=O)C4)cc3)cc2)on1 (stereo partly drawn) [Example 31] | 2 (≈ 3.87 µM) | 4 (≈ 7.74 µM) |  | 6.06 |  | 
8 | C[C@H](O)c1nccn1Cc1cc(-c2ccc(C#Cc3ccc(CN4CCNC(=O)C4)cc3)cc2)on1 [Example 54, (S)-4-(4-((4-(3-((2-(1-hydroxyethyl)-1H-imidazol-1-yl)methyl)isoxazol-5-yl)phenyl)ethynyl)benzyl)piperazin-2-one] | 2 (≈ 4.15 µM) | 4 (≈ 8.31 µM) | 16.2 |  |  | 
9 | C[C@H](O)c1nccn1Cc1cc(-c2ccc(C#Cc3ccc(CN4CCC(O)CC4)cc3)cc2)on1 [Example 18, (S)-1-(4-((4-(3-((2-(1-hydroxyethyl)-1H-imidazol-1-yl)methyl)isoxazol-5-yl)phenyl)ethynyl)benzyl)piperidin-4-ol] | 2 (≈ 4.14 µM) | 4 (≈ 8.29 µM) | 9.84 |  |  | 
10 | C[C@H](O)c1nccn1Cc1cc(-c2ccc(C#Cc3ccc(CNCCO)cc3)cc2)on1 [Example 34, (S)-2-((4-((4-(3-((2-(1-hydroxyethyl)-1H-imidazol-1-yl)methyl)isoxazol-5-yl)phenyl)ethynyl)benzyl)amino)ethan-1-ol] | 1 (≈ 2.26 µM) | 2 (≈ 4.52 µM) |  | 4.86 |  | 
11 | C[C@H](O)c1nccn1Cc1cc(-c2ccc(C#Cc3ccc(CNCCC(=O)O)cc3)cc2)on1 [Example 55, (S)-3-((4-((4-(3-((2-(1-hydroxyethyl)-1H-imidazol-1-yl)methyl)isoxazol-5-yl)phenyl)ethynyl)benzyl)amino)propanoic acid] | 8 (≈ 17 µM) | 8 (≈ 17 µM) | 24.4 |  |  | 
12 | C[C@H](O)c1nccn1Cc1cc(-c2ccc(C#Cc3ccc(CN4CCC(O)CC4)nc3)cc2)on1 [Example 36, (S)-1-((5-((4-(3-((2-(1-hydroxyethyl)-1H-imidazol-1-yl)methyl)isoxazol-5-yl)phenyl)ethynyl)pyridin-2-yl)methyl)piperidin-4-ol] | 2 (≈ 4.14 µM) | 4 (≈ 8.27 µM) | 8.33 |  |  | 
13 | C[C@H](O)c1nccn1Cc1cc(-c2ccc(C#Cc3ccc(CNCC(N)=O)cc3)cc2)on1 [Example 35, (S)-2-((4-((4-(3-((2-(1-hydroxyethyl)-1H-imidazol-1-yl)methyl)isoxazol-5-yl)phenyl)ethynyl)benzyl)amino)acetamide] | 0.25 (≈ 0.549 µM) | 0.5 (≈ 1.1 µM) |  | 14.9 |  | 
14 | C[C@H](O)c1nccn1Cc1cc(-c2ccc(C#Cc3ccc(OC4CCN(C)CC4)cc3)cc2)on1 [Example 44, (S)-1-(1-((5-(4-((4-((1-methylpiperidin-4-yl)oxy)phenyl)ethynyl)phenyl)isoxazol-3-yl)methyl)-1H-imidazol-2-yl)ethan-1-ol] | 2 (≈ 4.14 µM) | 8 (≈ 16.6 µM) | 18.6 |  |  | 
15 | C[C@H](O)c1nccn1Cc1cc(-c2ccc(C#Cc3ccc(CN4CC(CC(=O)O)C4)nc3)cc2)on1 [Example 115, (S)-2-(1-((5-((4-(3-((2-(1-hydroxyethyl)-1H-imidazol-1-yl)methyl)isoxazol-5-yl)phenyl)ethynyl)pyridin-2-yl)methyl)azetidin-3-yl)acetic acid] | 2 (≈ 4.02 µM) | 8 (≈ 16.1 µM) | 24.5 |  |  | 
16 | C[C@H](O)c1nccn1Cc1cc(-c2ccc(C#Cc3ccc(CN4CCC(N5CCOCC5)CC4)cc3)cc2)on1 [Example 51, (S)-1-(1-((5-(4-((4-((4-morpholinopiperidin-1-yl)methyl)phenyl)ethynyl)phenyl)isoxazol-3-yl)methyl)-1H-imidazol-2-yl)ethan-1-ol] | 2 (≈ 3.63 µM) | 8 (≈ 14.5 µM) | 6.7 |  |  | 
17 | C[C@H](O)c1nccn1Cc1cc(-c2ccc(C#Cc3ccc(Cn4cccn4)cc3)cc2)on1 [Example 33, (S)-1-(1-((5-(4-((4-((1H-pyrazol-1-yl)methyl)phenyl)ethynyl)phenyl)isoxazol-3-yl)methyl)-1H-imidazol-2-yl)ethan-1-ol] | 0.125 (≈ 0.278 µM) | 0.25 (≈ 0.556 µM) | 28.1 |  |  | 
18 | C[C@H](O)c1nccn1Cc1cc(-c2ccc(C#Cc3ccc(OCCO)cc3)cc2)on1 [Example 29, (S)-1-(1-((5-(4-((4-(2-hydroxyethoxy)phenyl)ethynyl)phenyl)isoxazol-3-yl)methyl)-1H-imidazol-2-yl)ethan-1-ol] |  |  | 14 |  | 0.25 (≈ 0.582 µM) | 0.25 (≈ 0.582 µM)
19 | C[C@H](O)c1nccn1Cc1cc(-c2ccc(C#Cc3cccnc3)cc2)on1 [Example 9, (S)-1-(1-((5-(4-(pyridin-3-ylethynyl)phenyl)isoxazol-3-yl)methyl)-1H-imidazol-2-yl)ethan-1-ol] | 1 (≈ 2.7 µM) | 2 (≈ 5.4 µM) | 27.1 |  |  | 
